Measured values as given in ChEMBL document CHEMBL1201862, “PubChem BioAssay data set” (2004).
The source made the active and inactive calls.

Tests used:
[1] = (§1) Counterscreen for antagonists of the orexin 1 receptor (OX1R; HCRTR1): Fluorescence-based cell-based high throughput dose response assay to identify antagonists of the parental CHO cell line. [Related pubchem assays (depositor defined):AID434989, AID435008, AID463079, AID485270, AID492963, AID492964, AID492965, AID493232, AID504699, AID504701]; format: functional
[2] = biological target: T1, Orexin/Hypocretin receptor type 1 (Homo sapiens, UniProt O43613); assay: (§2) Fluorescence-based cell-based high throughput dose response assay for antagonists of the orexin 1 receptor (OX1R; HCRTR1). [Related pubchem assays (depositor defined):AID434989, AID435008, AID463079, AID485270, AID492963, AID492964, AID492965, AID493232, AID504717, AID504718]; format: functional
T1 sequence (O43613 whole entry): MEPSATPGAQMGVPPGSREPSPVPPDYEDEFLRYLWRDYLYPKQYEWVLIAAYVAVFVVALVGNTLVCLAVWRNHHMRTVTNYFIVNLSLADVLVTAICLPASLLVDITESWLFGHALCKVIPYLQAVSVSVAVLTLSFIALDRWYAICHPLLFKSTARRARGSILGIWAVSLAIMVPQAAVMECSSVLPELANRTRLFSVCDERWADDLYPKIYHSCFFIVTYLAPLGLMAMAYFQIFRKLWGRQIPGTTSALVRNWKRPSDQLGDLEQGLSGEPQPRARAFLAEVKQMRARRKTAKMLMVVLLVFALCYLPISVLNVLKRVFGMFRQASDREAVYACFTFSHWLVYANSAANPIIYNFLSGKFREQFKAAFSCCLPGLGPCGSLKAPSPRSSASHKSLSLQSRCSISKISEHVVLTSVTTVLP

[3] = tested on: CHO-K1; assay: as §1, with “Homogeneous time resolved fluorescence (HTRF)-based” for “Fluorescence-based”, “cell-based” for “cell-based high throughput”, “CHO-K1” for “CHO”; format: functional; details: Cricetulus griseus;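 further: potency for inhibition of ATP-stimulated IP1 production as antagonists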
[4] = biological target: T1, Orexin/Hypocretin receptor type 1; assay: as §2, with “Homogeneous Time Resolved Fluorescence (HTRF)-based” for “Fluorescence-based”; format: functional
[5] = biological target: Cytochrome P450 2C9 (Homo sapiens, UniProt P11712)
[6] = biological target: Cytochrome P450 3A4 (Homo sapiens, UniProt P08684);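 further: CYP3A4 tested as one member of a cytochrome P450 panel screen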
[7] = biological target: T2, Tyrosine-protein phosphatase non-receptor type 22 (Homo sapiens, UniProt Q9Y2R2); format: functional
T2 sequence (Q9Y2R2 whole entry): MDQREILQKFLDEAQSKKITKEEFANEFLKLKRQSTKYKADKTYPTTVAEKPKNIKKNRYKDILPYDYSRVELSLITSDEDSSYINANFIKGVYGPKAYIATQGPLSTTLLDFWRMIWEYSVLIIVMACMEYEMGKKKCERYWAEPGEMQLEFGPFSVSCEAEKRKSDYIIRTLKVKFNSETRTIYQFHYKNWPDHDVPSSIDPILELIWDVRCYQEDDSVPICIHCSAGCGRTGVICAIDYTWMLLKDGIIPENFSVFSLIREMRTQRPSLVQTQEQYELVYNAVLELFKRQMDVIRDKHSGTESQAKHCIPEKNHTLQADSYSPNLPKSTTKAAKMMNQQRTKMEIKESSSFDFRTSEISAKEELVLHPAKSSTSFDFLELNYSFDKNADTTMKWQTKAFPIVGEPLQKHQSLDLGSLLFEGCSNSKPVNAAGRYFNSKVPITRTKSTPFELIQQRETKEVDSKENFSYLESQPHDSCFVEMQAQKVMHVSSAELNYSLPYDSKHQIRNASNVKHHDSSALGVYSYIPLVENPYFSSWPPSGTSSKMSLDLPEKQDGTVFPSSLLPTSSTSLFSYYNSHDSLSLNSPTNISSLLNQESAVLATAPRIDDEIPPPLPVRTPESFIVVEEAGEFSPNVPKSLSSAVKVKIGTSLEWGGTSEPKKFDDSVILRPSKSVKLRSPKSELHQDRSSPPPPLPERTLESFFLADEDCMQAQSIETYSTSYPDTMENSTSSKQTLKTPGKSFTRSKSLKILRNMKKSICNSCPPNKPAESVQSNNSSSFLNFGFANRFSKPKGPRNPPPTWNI

[8] = biological target: T2, Tyrosine-protein phosphatase non-receptor type 22; format: functional; remark: listed apart in the source
[9] = biological target: T3, Tyrosine-protein phosphatase non-receptor type 7 (Homo sapiens, UniProt P35236); format: functional
T3 sequence (P35236 whole entry): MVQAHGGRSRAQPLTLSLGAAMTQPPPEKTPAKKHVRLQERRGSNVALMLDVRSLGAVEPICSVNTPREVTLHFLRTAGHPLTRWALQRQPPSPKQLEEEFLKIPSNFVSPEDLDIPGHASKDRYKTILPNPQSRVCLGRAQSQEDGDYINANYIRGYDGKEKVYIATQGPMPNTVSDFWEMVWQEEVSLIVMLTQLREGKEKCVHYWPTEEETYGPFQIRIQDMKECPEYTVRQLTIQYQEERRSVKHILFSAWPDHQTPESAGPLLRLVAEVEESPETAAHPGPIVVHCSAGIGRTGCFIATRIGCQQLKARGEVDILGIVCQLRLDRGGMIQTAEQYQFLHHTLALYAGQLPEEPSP

[10] = biological target: T4, Ubiquitin-conjugating enzyme E2 N (Homo sapiens, UniProt P61088); format: functional
T4 sequence (P61088 whole entry): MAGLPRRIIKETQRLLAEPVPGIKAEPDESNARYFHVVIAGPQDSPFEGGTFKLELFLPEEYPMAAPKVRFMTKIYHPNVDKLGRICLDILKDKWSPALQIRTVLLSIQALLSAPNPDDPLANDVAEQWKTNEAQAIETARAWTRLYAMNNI

[11] = biological target: T5, Bcl-2-related protein A1 (Mus musculus, UniProt Q07440); format: functional;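 further: confirmatory dose–response counterscreen on Bfl-1, used to check hits from a UBC13 polyubiquitin inhibitor campaign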
T5 sequence (Q07440 whole entry): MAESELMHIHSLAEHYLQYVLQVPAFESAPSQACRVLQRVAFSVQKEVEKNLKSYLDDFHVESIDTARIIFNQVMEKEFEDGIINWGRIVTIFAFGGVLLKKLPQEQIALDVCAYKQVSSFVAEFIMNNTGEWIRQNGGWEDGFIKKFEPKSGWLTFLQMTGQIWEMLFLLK

[12] = biological target: T4, Ubiquitin-conjugating enzyme E2 N; format: functional; remark: listed apart in the source
[13] = biological target: Cytochrome P450 2D6 (Homo sapiens, UniProt P10635);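 further: CYP2D6 member of a cytochrome P450 panel assay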
[14] = biological target: T6, Short transient receptor potential channel 4 (Mus musculus, UniProt Q9QUQ5); assay: calcium entry via TRPC4 opening agents – cell-based, HEK293 TRPC4/mu-opioid, Fluo-4 calcium, dose response (AID 434937); format: functional
T6 sequence (Q9QUQ5 whole entry): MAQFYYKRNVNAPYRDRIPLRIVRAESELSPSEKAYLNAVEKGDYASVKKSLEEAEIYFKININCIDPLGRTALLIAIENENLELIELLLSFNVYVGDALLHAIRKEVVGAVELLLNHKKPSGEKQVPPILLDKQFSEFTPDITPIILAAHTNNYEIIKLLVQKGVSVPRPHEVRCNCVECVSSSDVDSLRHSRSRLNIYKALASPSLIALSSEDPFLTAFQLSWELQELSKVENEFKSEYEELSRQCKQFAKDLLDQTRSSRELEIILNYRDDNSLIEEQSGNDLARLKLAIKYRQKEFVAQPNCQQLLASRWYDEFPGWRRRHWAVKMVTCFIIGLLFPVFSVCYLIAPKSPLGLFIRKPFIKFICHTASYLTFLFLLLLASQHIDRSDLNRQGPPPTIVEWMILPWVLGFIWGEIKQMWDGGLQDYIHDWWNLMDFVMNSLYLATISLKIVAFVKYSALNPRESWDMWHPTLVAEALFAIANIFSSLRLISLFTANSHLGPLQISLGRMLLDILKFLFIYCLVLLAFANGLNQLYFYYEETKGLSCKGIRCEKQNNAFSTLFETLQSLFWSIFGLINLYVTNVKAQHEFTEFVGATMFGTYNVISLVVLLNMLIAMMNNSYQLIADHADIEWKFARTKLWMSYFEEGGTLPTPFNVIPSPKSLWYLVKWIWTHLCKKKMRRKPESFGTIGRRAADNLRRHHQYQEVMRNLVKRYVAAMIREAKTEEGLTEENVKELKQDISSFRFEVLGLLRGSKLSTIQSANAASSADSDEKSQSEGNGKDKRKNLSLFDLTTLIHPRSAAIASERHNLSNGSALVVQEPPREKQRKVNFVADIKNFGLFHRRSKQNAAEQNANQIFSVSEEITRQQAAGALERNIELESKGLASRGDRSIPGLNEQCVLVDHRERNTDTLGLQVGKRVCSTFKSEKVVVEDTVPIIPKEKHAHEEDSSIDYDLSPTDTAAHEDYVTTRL

[15] = biological target: Beta-lactamase (Salmonella choleraesuis (strain SC-B67), UniProt Q5J463); assay: Epi-absorbance-based counterscreen for selective VIM-2 inhibitors: dose response biochemical high throughput screening assay to identify inhibitors of TEM-1 serine-beta-lactamase.
[16] = biological target: T7, Cytochrome P450 1A2 (Homo sapiens, UniProt P05177);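 further: PubChem cytochrome P450 panel assay, CYP1A2 panel member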
T7 sequence (P05177 whole entry): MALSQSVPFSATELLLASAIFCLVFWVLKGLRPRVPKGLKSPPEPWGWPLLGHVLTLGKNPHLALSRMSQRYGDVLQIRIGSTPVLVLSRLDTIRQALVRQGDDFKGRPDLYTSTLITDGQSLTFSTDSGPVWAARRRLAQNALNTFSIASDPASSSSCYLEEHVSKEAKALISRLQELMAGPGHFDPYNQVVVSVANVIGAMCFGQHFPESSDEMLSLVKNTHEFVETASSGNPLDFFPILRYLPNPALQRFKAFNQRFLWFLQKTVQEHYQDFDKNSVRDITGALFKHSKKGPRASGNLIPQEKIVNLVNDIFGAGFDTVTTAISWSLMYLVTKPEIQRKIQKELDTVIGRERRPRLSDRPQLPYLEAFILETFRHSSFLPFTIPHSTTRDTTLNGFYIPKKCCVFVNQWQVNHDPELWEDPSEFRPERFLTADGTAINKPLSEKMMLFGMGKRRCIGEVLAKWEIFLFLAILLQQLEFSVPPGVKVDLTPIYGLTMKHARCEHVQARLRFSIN

[17] = biological target: T8, Beta-lactamase (Pseudomonas aeruginosa, UniProt Q79MP6); assay: inhibition of IMP-1 beta-lactamase activity – biochemical, epi-absorbance, selectivity assay for VIM-2 inhibitor project, dose response (AID 1920)
[18] = biological target: T8, Beta-lactamase; assay: […] counterscreen for selective VIM-2 inhibitors: dose response biochemical high throughput screening assay to identify inhibitors of IMP-1 metallo-beta-lactamase.
[19] = Luminescence Cell-Based Dose Confirmation HTS to Identify Inhibitors of Platelet Dense Granule Release. [Related pubchem assays: 1663 (Primary HTS), 1678 (Summary of Project)]; format: functional
[20] = biological target: Luciferin 4-monooxygenase (Photinus pyralis, UniProt P08659); assay: inhibition of purified Photinus pyralis luciferase – biochemical, luminescence, dose response (AID 1891)
Chain of Luciferin 4-monooxygenase (P08659 whole entry): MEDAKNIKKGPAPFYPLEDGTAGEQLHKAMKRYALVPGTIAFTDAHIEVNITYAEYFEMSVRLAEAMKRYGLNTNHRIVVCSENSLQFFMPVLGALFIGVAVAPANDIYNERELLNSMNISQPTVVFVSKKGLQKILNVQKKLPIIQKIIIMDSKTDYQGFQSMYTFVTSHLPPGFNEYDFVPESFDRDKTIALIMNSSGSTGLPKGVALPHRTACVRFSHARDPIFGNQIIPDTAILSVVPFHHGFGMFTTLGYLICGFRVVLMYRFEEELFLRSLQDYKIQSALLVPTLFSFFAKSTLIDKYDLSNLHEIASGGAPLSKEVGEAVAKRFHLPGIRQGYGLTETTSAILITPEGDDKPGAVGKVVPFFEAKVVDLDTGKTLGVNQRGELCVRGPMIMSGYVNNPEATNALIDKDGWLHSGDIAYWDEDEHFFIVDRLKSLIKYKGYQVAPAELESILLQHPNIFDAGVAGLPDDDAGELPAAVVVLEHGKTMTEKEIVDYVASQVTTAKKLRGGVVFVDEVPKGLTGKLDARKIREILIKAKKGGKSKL

Chain of Cytochrome P450 3A4 (P08684 whole entry): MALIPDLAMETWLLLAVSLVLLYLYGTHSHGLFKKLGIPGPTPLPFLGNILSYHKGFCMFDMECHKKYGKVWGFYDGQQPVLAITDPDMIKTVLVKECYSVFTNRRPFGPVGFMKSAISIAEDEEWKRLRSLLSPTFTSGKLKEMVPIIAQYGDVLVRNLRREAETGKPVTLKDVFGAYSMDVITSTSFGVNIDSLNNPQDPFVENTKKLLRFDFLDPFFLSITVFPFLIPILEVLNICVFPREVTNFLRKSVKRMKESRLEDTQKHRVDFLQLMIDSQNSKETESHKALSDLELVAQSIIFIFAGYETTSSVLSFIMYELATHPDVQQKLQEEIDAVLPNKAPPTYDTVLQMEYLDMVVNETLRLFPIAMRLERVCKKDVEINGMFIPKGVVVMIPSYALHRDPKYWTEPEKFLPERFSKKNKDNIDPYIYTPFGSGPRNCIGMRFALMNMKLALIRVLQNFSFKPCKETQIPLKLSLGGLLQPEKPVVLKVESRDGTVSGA
T8 sequence (Q79MP6 whole entry): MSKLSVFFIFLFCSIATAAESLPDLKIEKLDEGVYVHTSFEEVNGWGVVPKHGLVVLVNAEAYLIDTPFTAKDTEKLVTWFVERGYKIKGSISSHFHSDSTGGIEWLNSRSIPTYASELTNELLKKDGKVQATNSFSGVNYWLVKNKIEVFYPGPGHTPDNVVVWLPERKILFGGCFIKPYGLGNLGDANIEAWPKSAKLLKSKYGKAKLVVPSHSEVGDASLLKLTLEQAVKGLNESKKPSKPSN
Chain of Cytochrome P450 2C9 (P11712 whole entry): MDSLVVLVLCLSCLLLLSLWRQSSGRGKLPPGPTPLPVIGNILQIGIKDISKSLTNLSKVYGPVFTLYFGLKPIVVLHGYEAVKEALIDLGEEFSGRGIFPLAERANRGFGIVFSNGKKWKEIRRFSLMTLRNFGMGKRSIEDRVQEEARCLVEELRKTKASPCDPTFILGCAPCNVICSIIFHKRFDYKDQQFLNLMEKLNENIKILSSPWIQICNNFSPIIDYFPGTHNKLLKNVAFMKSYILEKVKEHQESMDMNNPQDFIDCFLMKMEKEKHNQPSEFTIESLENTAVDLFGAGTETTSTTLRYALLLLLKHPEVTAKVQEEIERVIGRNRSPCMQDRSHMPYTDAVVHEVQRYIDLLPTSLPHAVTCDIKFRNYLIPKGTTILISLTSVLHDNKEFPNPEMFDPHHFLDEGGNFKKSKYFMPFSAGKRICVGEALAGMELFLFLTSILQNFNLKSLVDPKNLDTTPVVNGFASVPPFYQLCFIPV
Chain of Beta-lactamase (Salmonella choleraesuis (strain SC-B67), UniProt Q5J463) (Q5J463 whole entry): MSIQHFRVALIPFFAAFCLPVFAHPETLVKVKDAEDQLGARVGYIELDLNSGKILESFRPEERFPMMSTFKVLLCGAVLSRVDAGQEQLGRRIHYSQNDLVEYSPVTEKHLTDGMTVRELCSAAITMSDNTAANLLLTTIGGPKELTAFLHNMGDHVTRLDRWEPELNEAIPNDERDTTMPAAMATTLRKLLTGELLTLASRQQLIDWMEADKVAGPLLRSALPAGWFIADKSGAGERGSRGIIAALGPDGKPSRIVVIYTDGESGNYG
Chain of Cytochrome P450 2D6 (P10635 whole entry): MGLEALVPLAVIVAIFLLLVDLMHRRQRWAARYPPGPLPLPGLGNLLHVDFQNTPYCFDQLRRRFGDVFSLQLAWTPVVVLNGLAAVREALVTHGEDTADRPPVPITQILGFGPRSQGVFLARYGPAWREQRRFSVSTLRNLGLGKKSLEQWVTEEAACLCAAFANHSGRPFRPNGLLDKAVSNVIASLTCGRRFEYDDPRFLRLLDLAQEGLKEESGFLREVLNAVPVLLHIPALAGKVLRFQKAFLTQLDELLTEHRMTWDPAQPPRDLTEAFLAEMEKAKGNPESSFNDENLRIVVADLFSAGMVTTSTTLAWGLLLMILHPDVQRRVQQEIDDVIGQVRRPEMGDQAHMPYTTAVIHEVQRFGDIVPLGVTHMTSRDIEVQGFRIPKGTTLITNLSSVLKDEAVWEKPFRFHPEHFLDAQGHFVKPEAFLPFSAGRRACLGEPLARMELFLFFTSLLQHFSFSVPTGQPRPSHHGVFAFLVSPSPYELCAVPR

Q: Which results are given for `Oc1ccccc1-c1nc(NCC2CCCO2)c2ccccc2n1` (stereo not given)?
A: IC50 [1]: 45.8 µM (inactive); IC50 [2]: 8.66 µM (active); IC50 [3]: > 66.2 µM (inactive); IC50 [4]: 3.73 µM (active)

Q: For `COC(=O)COc1ccc(/C=C2/SC(=O)N(CC(=O)N3CCCC3)C2=O)cc1Br`, which AC50 [5] is on record?
A: 10 µM (inconclusive)

Q: And the AC50 [6]?
A: inconclusive

Q: Which IC50 [7] does the source give for `CC1Cc2ccccc2N1CC(=O)Nc1cccc(S(N)(=O)=O)c1` (stereo not given) here?
A: > 79.4 µM (inactive)

Q: What about the IC50 [8] of the same molecule?
A: > 79.4 µM (inactive)

Q: What about the IC50 [9] of the same molecule?
A: > 79.4 µM (inactive)

Q: Which IC50 [10] does the source give for `Cc1c(NC(=O)CCCN2C(=O)c3cccc4cccc(c34)C2=O)c(=O)n(-c2ccccc2)n1C` here?
A: 8.02 µM (active)

Q: What about the IC50 [11] of the same molecule?
A: > 20 µM (inactive)

Q: What about the IC50 [12] of the same molecule?
A: 18.5 µM (active)

Q: What does the source list for `COc1ccc(Cc2nnc(NC(=O)c3ccccc3F)s2)cc1OC`?
A: IC50 [7]: > 79.4 µM (inactive); IC50 [8]: > 79.4 µM (inactive); IC50 [9]: > 79.4 µM (inactive)

Q: Which AC50 [6] does the source give for `O=C(Cn1cnc2ccccc2c1=O)NCCC(=O)Nc1ccc2c(c1)OCCO2` here?
A: inconclusive

Q: What about the AC50 [13] of the same molecule?
A: inconclusive

Q: With `COc1ccc(-c2nn(-c3ccccc3)cc2CNCc2cccnc2)c(F)c1` as the molecule, how does the EC50 [14] read?
A: 5.96 µM (active)

Q: Which results are given for `CCCC(=O)Nc1nnc(SCC(=O)NCc2cccs2)s1`?
A: IC50 [15]: > 59.6 µM (inactive); AC50 [6]: inconclusive; AC50 [16]: 10 µM (inconclusive); IC50 [17]: > 59.6 µM (inactive); IC50 [18]: > 59.6 µM (inactive)

Q: Which results are given for `CN1CCCC(OC(=O)c2cc(Br)ccc2Cl)C1` (stereo not given)?
A: EC50 [14]: 0.211 µM (active); EC50 [19]: > 56.1 µM (not active); EC50 [20]: > 112 µM (not active)

Q: With `CCN(CC(=O)NCc1cccs1)C(=O)c1cccc(S(=O)(=O)Nc2ccccc2OC)c1` as the molecule, how does the IC50 [10] read?
A: 11.3 µM (active)

Q: What about the IC50 [11] of the same molecule?
A: > 20 µM (inactive)

Q: What about the IC50 [12] of the same molecule?
A: 17.1 µM (active)

Q: Which EC50 [14] does the source give for `Cc1csc2c(N3CCN(C(=O)Nc4ccc(OC(F)(F)F)cc4)CC3)ncnc12` here?
A: 1.88 µM (active)
